In patent publication US5888993A, “Vanadium compounds in the treatment of elevated blood sugar levels” (The University of British Columbia, priority 1997, dated 1999):
Where “and” joins values, the source holds several entries; their conditions need not be identical. Equal entries are not always repeated.

Legend:
diabetic rats [1] = assay: BMOV single oral gavage, STZ diabetic rats; type: in vivo, rat; conditions: 160 μmol/kg
diabetic rats [2] = assay: Comparative testing, plasma glucose after oral gavage in STZ diabetic rats; type: in vivo, male wistar rats; conditions: oral gavage 1 mmol/kg
Description: Diabetes was induced in all animals by a single intravenous injection of streptozotocin (STZ) 60 mg/kg in 0.9% NaCl via the tail vein. Three days after STZ injection, blood was collected from the tail by nicking the tail tip and expressing the blood into heparinized capillary tubes. Blood was centrifuged at 20,000 g for 10 minutes to separate the plasma. Glucose analysis was done immediately on the plasma sample using a Boehringer Mannheim kit. […] One week after STZ injection animals were randomly divided into 3 pairs of rats. Each pair of rats received by oral gavage 1 mmol/kg of BMOV or VO(Sal)2 or VO(acac)2, suspended in 3% acacia.

STZ-diabetic rats = assay: Comparison of BMOV and ETHYLBMOV, plasma glucose and insulin in STZ-diabetic rats; type: in vivo, rat; conditions: 0.6 mmol kg^-1, one oral gavage, 24 hour period
Description: Animal studies were conducted in STZ-diabetic rats comparing doses of 0.6 mmol kg^-1 for VO(ma)2 (BMOV) and VO(ema)2 (ETHYLVMOV). FIGS. 8 and 9 respectively show plasma glucose and plasma insulin values recorded over 24 hour periods after one oral gavage of a water solution of either BMOV or ETHYLBMOV, in order to compare their efficacies.

SHR rats = assay: Blood pressure reduction by BMOV, spontaneously hypertensive rats; type: in vivo, rat; conditions: SHRO, 0.75 mg/ml in drinking water
Description: 11 SHR and 12 WKY rats (all male) were procured at 4 weeks of age from Charles River, Canada. The animals were divided into four experimental groups: SHR (untreated n=5), SHRO (BMOV treated n=6), WKY (untreated n=8) and WKYO (BMOV treated n=4). Chronic BMOV treatment was commenced on the SHRO and WKYO groups at 5 weeks of age. The rats were given BMOV (0.75 mg/ml) ad libitum in the drinking water.
Once at week 5 and then starting at week 8, weekly measurements of blood pressure were done on all groups for the next 3 weeks. Blood samples were also collected via the tail vein during the weeks mentioned above. These were centrifuged and plasma was collected for subsequent glucose and insulin analyses. Chronic blood pressure measurements were done on conscious rats, using the tail cuff method without external preheating. Initial experiments to validate the tail cuff method by comparing the readings obtained with it to those obtained by direct arterial cannulation were conducted.

diabetic rats [3] = assay: Blood glucose response after i.p. injection in STZ diabetic rats; type: in vivo, rat
Description: Initial experiments were carried out to determine pharmacological effectiveness of BMOV. Using male rats, made diabetic by the injection of streptoxoticin (STZ) at a dose of 60 mg/kg i.v., BMOV was initially given by intraperitoneal (i.p.) injection as a suspension in 1% methyl cellulose.
Two animals developed hypoglycemia.

diabetic rats [4] = assay: Prolonged administration in drinking water (77 days), STZ diabetic rats; type: in vivo, rat
Description: (§1) BMOV was administered to normal and diabetic rats in drinking water.
(§2) The study was composed of 4 groups of animals Control (8 animals), Control-Treated (11 animals), Diabetic (11 animals) and Diabetic-Treated (12 animals). The diabetic state was induced by injecting STZ at 60 mg/kg dissolved in 0.9% NaCl I.V. via the tail vein to anaesthetized rats. The two control groups were injected with 0.9% NaCl I.V. through the tail vein. The diabetic state was determined with a "Testape"™ test at 3 days post-injection and later confirmed with a glucometer test. Blood glucose and insulin assays were carried out post-injection over the course of the study. Treatment according to the invention was started 1 week after determination of the diabetic state.
(§3) Treated diabetic animals received between 0.3 and 0.5 mmol/kg of the compound/day in drinking water over a 77 day period. Treated control animals received a slightly lower dose (0.2-0.3 mmol/day) over the same period. The concentration of BMOV in the drinking water was varied between 1.6 and 3.2 mM. The reason for the differing doses in the two sets of animals is that the two groups drank different amounts of water daily; it was difficult to attain the same dose in both groups.
(§4) 1. As indicated above, 4 groups of animals were studied, but the diabetic-treated group was sub-divided to diabetic-treated responders (8 animals) and diabetic-treated non-responders (4 animals). Curve 1 is the control group, curve 2 the control-treated group, curve 3 the diabetic group, curve 4 is the diabetic-treated responders and curve 5 is the diabetic-treated non-responders. […] Treatment began with a […] solution of the compound. […] On day 24, the concentration was increased to 2.37 mM (0.7 mg/ml).

normal rats = assay: Prolonged administration in drinking water (77 days), normal (control) rats; type: in vivo, rat
Description: as §1, §2, §3, §4

[5] = diabetic-treated non-responders, pretreatment, mean ± S.E.M.
[6] = diabetic-treated non-responders, week 6, mean ± S.E.M.
[7] = diabetic-treated responders, pretreatment, mean ± S.E.M.
[8] = diabetic-treated responders, week 6, mean ± S.E.M.
[9] = control treated, week 6, mean ± S.E.M.

Cc1occc(=O)c1[O-].Cc1occc(=O)c1[O-].[O]=[V+2] [BMOV, Bis(maltolato)oxovanadium(IV)]
rats responding with a decrease in blood glucose (diabetic rats [1]): Six out of six
time of peak fall in blood glucose (diabetic rats [1]): 5 h
time for return of blood glucose to diabetic levels (diabetic rats [1]; usually): ≤ 12 h
blood glucose reducing effect vs compounds of Comparative Examples 15 and 16 (diabetic rats [2]): superior
plasma glucose level (diabetic rats [2]; 0 h, individual rats (two per drug)): 23.02 mM and 23.01 mM
plasma glucose level (diabetic rats [2]; 2 h, individual rats): 23.87 mM and 23.15 mM
plasma glucose level (diabetic rats [2]; 4 h, individual rats): 22.27 mM and 23.32 mM
plasma glucose level (diabetic rats [2]; 6 h, individual rats): 21.21 mM and 22.09 mM
plasma glucose level (diabetic rats [2]; 8 h, individual rats): 20.26 mM and 19.45 mM
plasma glucose level (diabetic rats [2]; 12 h, individual rats): 9.97 mM and 8.73 mM
plasma glucose level (diabetic rats [2]; 24 h, individual rats): 0.8 mM and 1.0 mM
plasma glucose, difference BMOV vs ETHYLBMOV (STZ-diabetic rats): statistically insignificant
plasma insulin, difference BMOV vs ETHYLBMOV (STZ-diabetic rats): statistically insignificant
development of high blood pressure, in words (SHR rats): prevent the development of high blood pressure
decrease in systolic blood pressure (SHR rats; tail cuff): 25-30 mmHg
animals that developed hypoglycemia (diabetic rats [3]; 15 mg/kg i.p.): Two animals
rats responding with a decrease in blood glucose (diabetic rats [3]; 15 mg/kg i.p. (0.05 mmol/kg), suspension in 1% methyl cellulose): Nine out of the twelve
weight, diabetic-treated groups vs all other groups (diabetic rats [4]; both diabetic-treated groups, by day 7): significant difference
plasma triglyceride and cholesterol, in words (diabetic rats [4]; diabetic animals): restored to control values
fluid intake (diabetic rats [4]; diabetic treated (diabetic about 275 ml/rat)): about 60 ml/rat
food intake (diabetic rats [4]; diabetic-treated (from greater than 50 grams per day)): about 30 grams per day
weight, non-responders vs other 4 groups (diabetic rats [4]; diabetic-treated non-responders, by day 28): significantly different from the other 4 groups
Cholesterol (diabetic rats [4]; [5]): 1.51 ± 0.07 mmol/L
Triglyceride (diabetic rats [4]; [5]): 1.85 ± 0.41 mmol/L
Cholesterol (diabetic rats [4]; [6]): 1.48 ± 0.09 mmol/L
Triglyceride (diabetic rats [4]; [6]): 2.31 ± 0.19 mmol/L
hypoglycemia (diabetic rats [4]; diabetic-treated responders, before day 18, treatment withheld): developed in several animals
blood glucose, in words (diabetic rats [4]; diabetic-treated responders, by day 14): euglycemic
weight, responders vs diabetic group (diabetic rats [4]; diabetic-treated responders, by day 28): no longer a significant difference
Cholesterol (diabetic rats [4]; [7]): 1.67 ± 0.10 mmol/L
Triglyceride (diabetic rats [4]; [7]): 1.10 ± 0.09 mmol/L
Cholesterol (diabetic rats [4]; [8]): 1.58 ± 0.11 mmol/L
Triglyceride (diabetic rats [4]; [8]): 1.70 ± 0.18 mmol/L
weight gain (diabetic rats [4]; diabetic-treated, 77 days, drinking water): 140 g
food consumption vs control, in words (diabetic rats [4]; diabetic-treated, at any time): no significant difference
Insulin values (diabetic rats [4]; diabetic-treated, day 28 of BMOV study): 22.0 ± 1.6 μU/ml
food intake (diabetic rats [4]; diabetic-treated, day 77): 28±1.6 grams per day
animals responding (blood glucose lowered) (diabetic rats [4]; diabetic-treated, drinking water): 8 out of the 12 and eight of the twelve
fluid consumption vs control, in words (diabetic rats [4]; diabetic-treated, throughout): no significant difference
blood glucose (diabetic rats [4]; non-responders (four of the twelve rats), on any given day): 6 to 30 mM
blood glucose, in words (diabetic rats [4]; responders, by day 24): normal blood glucose
blood glucose (diabetic rats [4]; responders, from day 7 onwards (from 20 mM)): less than 10 mM
cataracts (diabetic rats [4]; treated animals not controlled by the drug, end of 77 days): One of the four
cataracts (diabetic rats [4]; treated diabetic rats controlled by the drug, end of 77 days (untreated diabetic 5/11)): 0/8
insulin vs control, in words (normal rats; control treated): significantly lower
fluid intake (normal rats; control treated, day 77 (control 62.7±7.4)): 33.6 ± 7.2 mL
Cholesterol (normal rats; control treated, pretreatment (day before treatment started), mean ± S.E.M.): 1.64 ± 0.08 mmol/L
Triglyceride (normal rats; control treated, pretreatment, mean ± S.E.M.): 1.21 ± 0.14 mmol/L
Cholesterol (normal rats; [9]): 1.60 ± 0.06 mmol/L
Triglyceride (normal rats; [9]): 2.04 ± 0.22 mmol/L
food intake (normal rats; control-treated (control 29±0.1)): 25.5±0.3 grams per day
weight gain (normal rats; control-treated, 77 days, drinking water (control 250 g)): 200 g
fluid consumption vs all other groups, in words (normal rats; control-treated, by day 63): significant difference
weight gain, in words (normal rats; control-treated, from day 56): significantly decreased weight gain
food consumption vs all other groups, in words (normal rats; control-treated, from day 63 on): significant difference
water solubility, in words (Water solubility): quite water-soluble
water solubility (Water solubility; water): about 7 mM and ~2 mg/mL
